Reference: ChEMBL document CHEMBL1141774, “Benzopyran, biphenyl, and tetraoxygenated xanthone derivatives from the twigs of Garcinia nigrolineata” (2005)
≈ marks a conversion by molar mass, not a printed value.

Test system: Staphylococcus aureus
Assay: Antibacterial activity against methicillin-resistant Staphylococcus aureus
Assay type: functional

| Structure (SMILES) | MIC |
| --- | --- |
| CC(C)=CCc1c(O)cc2oc3c(O)c4c(cc3c(=O)c2c1O)C=CC(C)(C)O4 [LASTIXANTHONE D] | 2 µg/mL (≈ 5.07 µM) |
| CC1(C)C=Cc2c(cc(O)c3c(=O)c4cc(O)ccc4oc23)O1 [NIGROLINEAXANTHONE F] | 2 µg/mL (≈ 6.45 µM) |
| CC(C)=CCc1c(O)cc2oc3c(O)ccc(CCC(C)(C)O)c3c(=O)c2c1O [NIGROLINEAXANTHONE N] | 4 µg/mL (≈ 10 µM) |
